How the values were obtained:
mGluR5 = mGluR5 (Homo sapiens, UniProt P41594); assay: Radioligand binding assay, [3H]MPEP filtration binding to membrane homogenates; conditions: 5 nM [3H]MPEP; Ki calculated from IC50 by Cheng-Prusoff
Experimental: Binding assays were performed as described in [J. A. O'Brien et al. Mol. Pharmacol., 2003, 64, 731-740] with slight modifications. Briefly, after thawing, the membrane homogenates were resuspended in 50 mM Tris-HCl, 0.9% NaCl binding buffer at pH 7.4 to a final assay concentration of 40 μg protein/well for [^3H]methoxy-5-(2-pyridinylethynyl)pyridine ([^3H] MPEP) (American Radiolabeled Chemicals, Inc., St. Louis, Mo.) filtration binding. Incubations included 5 nM [^3H] MPEP, membranes and either buffer or varying concentrations of compound. Samples were incubated for 60 min at room temperature with shaking. Non-specific binding was defined with 10 μM MPEP. After incubation, samples were filtered over a GF/C filter (presoaked in 0.25% polyethyleneimine (PEI)) and then washed 4 times using a Tomtec® Harvester 96® Mach III cell harvester (Tomtec, Hamden, Conn.) with 0.5 mL ice-cold 50 mM Tris-HCl (pH 7.4).
IC50 values were derived from the inhibition curve and Ki values were calculated according to the Cheng and Prusoff equation of Ki=IC50/(1+[L]/Kd) described in [Y. Cheng and W. H. Prusoff Biochem. Pharmacol. 1973, 22, 3099-3108] where [L] is the concentration of radioligand and Kd is its dissociation constant at the receptor, derived from the saturation isotherm.

[1] = molecular target: T1, rat metabotropic glutamate receptor 5 (mGluR5) (Rattus norvegicus, UniProt P31424); assay: Calcium mobilization assay (FLIPR) for negative or positive allosteric activity, HEK 293 cells; type: cell-based; conditions: HEK293, negative allosteric modulation, inhibition of EC80 glutamate response; read-out: FLIPR maximum inhibition
T1 construct: expressed in transfected cells; host or cells: HEK 293
Summary of the method: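 HEK 293 cells stably expressing rat mGluR5, Fluo-4 loaded in HEPES-buffered HBSS pH 7.4 with 0.1% BSA and probenecid. Compound added with EC20 (potentiation) or EC80 (inhibition) glutamate; fluorescence read over 3 min at room temperature. Basal-subtracted maximum fluorescence change fitted to Hill equation.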

adult, male CD1 mice = assay: Mouse marble burying (mMB) assay, anxiolytic effect; type: in vivo; conditions: for mMB EDmin: SC given for Example 58
Experimental: (§1) Examples 1, 2 and 58 were evaluated in vivo for anxiolytic effects using (1) mouse marble burying (mMB) methods similar to those described in [K. Njung'e, K. and S. L. Handley, Pharmacology, Biochemistry and Behavior, 1991, 38, 63-67] and (2) a modified Geller-Seifter conflict test described in [N. A. Moore et al. Behavioural Pharmacology. 1994, 5, 196-202].
More specifically for the mMB testing, adult, male CD1 mice (Charles River Laboratories (Kingston, N.Y.)), weighing 25 to 30 g, were used. All animals were group-housed in a standard colony room with a 12:12 light/dark cycle (lights on at 6:00 am) for at least one week prior to testing. Food and water were provided ad libitum. Animals were weighed, tail marked, and randomly assigned to treatment groups before testing.
For each test, sixty minutes after the injection of vehicle or test compound, or 30 min after injection of the positive control, buspirone, mice were individually placed into test cages containing 1.5 in of Aspen bedding (PWI brand) and two rows of 10 marbles (20 marbles per test cage total). Filter tops were used to cover each test cage. Thirty minutes later, mice were removed from test cages and returned to their home cages. The number of fully visible marbles (less than ⅔ covered with bedding) were counted and subtracted from 20 to arrive at the number of marbles buried. Twelve mice were tested per group.
Testing included multiple tests with each test performed to evaluate buspirone hydrochloride (BUS; Sigma Aldrich) (positive control) and/or a compound of the present invention. Each compound was dissolved immediately prior to testing in 20% beta-cyclodextrin (compound of the present invention) or distilled water (BUS) and administered at one or more doses (such as 3, 10, and/or 30 mg/kg) via subcutaneous (SC) or intraperitoneal (IP) injection at the indicated pretreatment times (i.e., 30, 60, or 120 min pretreatment). Doses were measured in mg drug (salt form) per kg body weight. Data was analyzed using one-way ANOVA with post-hoc Dunnett's test.

[2] = system: adult, male Sprague-Dawley rats; assay: Modified Geller-Seifter conflict test, anxiolytic effect; type: in vivo, rat; conditions: for Statistically significant Active dose(s): oral, Geller-Seifter assay, ANOVA with Dunnett's test or t-test; for Geller-Seifter EDmin: rat conflict test, PO for Example 58
Experimental: as §1
More specifically for the Geller-Seifter Conflict testing, rodent operant chambers (ENV-007CT, Med Associates Inc. (Georgia, Vt.)) and sound-attenuating chambers (ENV-018MD, Med Associates Inc.) were used. Each chamber was equipped with a house light, cue lights, grid floor to deliver foot shocks via a programmable shocker, (ENV-414, Med Associates, Inc.) and food hopper. Two levers were located on either side of the food hopper, Rats were trained to only respond on the left lever. Food reinforcement was used (Dustless Precision Pellets, 45 mg, BioServ, (Frenchtown, N.J.)). MED-PCIV software (Med Associates) was used to run experimental sessions and collect data.
Prior to beginning the Conflict procedure, animals were initially trained to lever press on fixed ratio schedules (FR 1, 2, 5, and 10). Once animals obtained 25 rewards on a FR 10 schedule for 2 consecutive days, animals began training on a three component Conflict schedule. […] These three components were repeated twice in the same order during the daily 30 minute session.
Animals were tested using a Latin-squares design, on Wednesdays and Fridays. Animals served as their own controls and received all treatments. To maintain baseline performance, animals were also trained the remaining three weekdays.
Testing was performed using 12 adult, male Sprague-Dawley rats, weighing 426-567 g (Charles River Laboratories (Kingston, N.Y.)). Animals were pair-housed in colony rooms maintained at controlled temperature (68-72° F.) and a 12-h light/dark cycle (lights on 06:00). Animals were given free access to water, while food was limited to 15 g of Bacon Lover's Treats (BioServ) after training/testing Monday through Thursday. Friday through Sunday, animals had free access to Lab Diet 5012 Rat Diet (PMI Nutrition International, LLC, Brentwood, Mo.) until cages were changed and food removed on Sunday.
Testing included multiple tests where each test was performed to evaluate either a reference compound or a compound of the present invention. Reference anxiolytics included chlordiazepoxide, diazepam and buspirone, which were dissolved in saline or water and administered via SC, IP, and/or PO, Test compounds were dissolved in 20% beta-cyclodextrin, and the pH was adjusted to 7 with NaHCO3. For each test, the compound to be evaluated was tested at one or more doses (such as 10, 20, 30 and/or 50 mg/kg) via p.o. administration 60 minutes before the test using an injection volume of 2 mL/kg in comparison with a vehicle control group. Doses were measured in mg drug (salt form) per kg body weight. Data was analyzed using Repeated Measures ANOVA with post-hoc Dunnett's test.

T1 sequence (P31424 21-1171 isoform P31424-2 limits assumed): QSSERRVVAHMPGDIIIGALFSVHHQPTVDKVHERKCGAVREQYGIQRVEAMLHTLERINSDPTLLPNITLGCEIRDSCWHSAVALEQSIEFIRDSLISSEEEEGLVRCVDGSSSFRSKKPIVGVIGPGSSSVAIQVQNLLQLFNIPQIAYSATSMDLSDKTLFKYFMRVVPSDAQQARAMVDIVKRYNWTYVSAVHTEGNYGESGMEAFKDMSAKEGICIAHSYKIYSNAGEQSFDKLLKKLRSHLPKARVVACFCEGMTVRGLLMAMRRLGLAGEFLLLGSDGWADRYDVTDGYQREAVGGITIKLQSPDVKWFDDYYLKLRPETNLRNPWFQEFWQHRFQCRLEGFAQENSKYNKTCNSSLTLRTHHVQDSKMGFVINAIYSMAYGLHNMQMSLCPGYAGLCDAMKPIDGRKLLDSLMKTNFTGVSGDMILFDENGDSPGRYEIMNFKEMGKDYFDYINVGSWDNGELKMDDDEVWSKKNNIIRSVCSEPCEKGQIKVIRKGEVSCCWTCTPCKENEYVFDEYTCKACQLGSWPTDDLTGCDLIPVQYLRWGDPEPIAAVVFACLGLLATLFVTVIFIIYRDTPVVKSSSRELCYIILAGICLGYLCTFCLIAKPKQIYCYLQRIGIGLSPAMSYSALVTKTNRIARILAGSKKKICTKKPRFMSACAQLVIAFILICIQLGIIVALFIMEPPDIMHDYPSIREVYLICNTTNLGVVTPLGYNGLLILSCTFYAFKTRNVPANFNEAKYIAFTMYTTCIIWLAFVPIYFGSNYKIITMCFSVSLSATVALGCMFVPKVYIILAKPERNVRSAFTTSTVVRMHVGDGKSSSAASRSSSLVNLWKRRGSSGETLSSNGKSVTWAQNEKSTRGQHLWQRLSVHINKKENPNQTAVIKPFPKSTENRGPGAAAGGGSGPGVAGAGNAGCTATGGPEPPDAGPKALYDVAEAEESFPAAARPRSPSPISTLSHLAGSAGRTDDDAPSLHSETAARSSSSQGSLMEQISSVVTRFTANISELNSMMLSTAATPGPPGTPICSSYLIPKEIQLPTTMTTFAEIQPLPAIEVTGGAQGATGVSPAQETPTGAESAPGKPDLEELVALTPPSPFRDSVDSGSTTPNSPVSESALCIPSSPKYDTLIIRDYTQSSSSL
Sequence of mGluR5 (P41594 21-1212): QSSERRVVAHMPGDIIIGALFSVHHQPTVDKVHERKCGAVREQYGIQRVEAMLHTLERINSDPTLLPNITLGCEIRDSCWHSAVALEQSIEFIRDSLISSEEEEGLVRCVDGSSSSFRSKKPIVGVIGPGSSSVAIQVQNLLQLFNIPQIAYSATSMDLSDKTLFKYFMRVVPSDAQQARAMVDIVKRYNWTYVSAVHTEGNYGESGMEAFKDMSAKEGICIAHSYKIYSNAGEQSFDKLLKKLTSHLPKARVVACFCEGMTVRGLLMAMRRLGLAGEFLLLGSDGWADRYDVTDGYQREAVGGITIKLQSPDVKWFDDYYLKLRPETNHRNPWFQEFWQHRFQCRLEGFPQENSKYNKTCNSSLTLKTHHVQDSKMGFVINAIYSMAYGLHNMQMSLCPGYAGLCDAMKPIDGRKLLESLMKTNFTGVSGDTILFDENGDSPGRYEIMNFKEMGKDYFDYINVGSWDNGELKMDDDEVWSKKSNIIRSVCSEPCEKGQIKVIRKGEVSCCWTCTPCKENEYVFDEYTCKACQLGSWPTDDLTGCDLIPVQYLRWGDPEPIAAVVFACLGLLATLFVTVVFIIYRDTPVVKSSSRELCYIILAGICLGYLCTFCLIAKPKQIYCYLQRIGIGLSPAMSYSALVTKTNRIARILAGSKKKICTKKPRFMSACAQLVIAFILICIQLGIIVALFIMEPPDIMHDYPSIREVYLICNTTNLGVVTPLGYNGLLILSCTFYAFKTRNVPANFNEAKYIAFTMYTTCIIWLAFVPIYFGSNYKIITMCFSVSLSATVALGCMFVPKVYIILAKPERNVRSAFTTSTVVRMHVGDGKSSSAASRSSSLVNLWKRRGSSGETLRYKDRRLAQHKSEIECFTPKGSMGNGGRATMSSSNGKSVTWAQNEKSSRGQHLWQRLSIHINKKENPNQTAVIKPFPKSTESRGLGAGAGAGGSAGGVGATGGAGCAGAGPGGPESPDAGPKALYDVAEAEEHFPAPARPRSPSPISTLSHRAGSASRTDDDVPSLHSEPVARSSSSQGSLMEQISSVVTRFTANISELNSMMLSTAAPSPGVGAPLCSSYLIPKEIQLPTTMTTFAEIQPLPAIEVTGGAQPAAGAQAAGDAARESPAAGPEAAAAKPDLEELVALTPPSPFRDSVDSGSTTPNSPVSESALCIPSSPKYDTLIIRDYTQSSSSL

Ki (mGluR5) [nM]	Emax [1] [%]	Compound	mMB EDmin (adult, male CD1 mice) [mg/kg]	minimal effective dose (adult, male CD1 mice; SC injection, one-way ANOVA with Dunnett's test or t-test, read-out: Statistically significant Active Dose) [mg/kg]	Statistically significant Active dose(s) [2] [mg/kg]	Geller-Seifter EDmin [2] [mg/kg]
40	90 to 99	O=C(NC12CC3CC(C1)CC(NC(=O)c1ccccn1)(C3)C2)c1ccccn1 [Example 2, N,N′-(1,3-adamantylene)bis(2-pyridinecarboxamide)]	30	30	20	20
–	63 to 99	Cc1cccc(C(=O)NC23CC4CC(CC(NC(=O)c5cnccn5)(C4)C2)C3)n1 [Example 41, Pyrazine-2-carboxylic acid {3-[(6-methyl-pyridine-2-carbonyl)-amino]-adamantan-1-yl}-amide]	–	–	30	–
6.7	90 to 99	Cc1cccc(C(=O)NC23CC4CC(C2)CC(NC(=O)c2cccc(C)n2)(C4)C3)n1 [Example 1, N,N′-(1,3-adamantylene)bis(6-methyl-pyridine-2-carboxamaide)]	3	–	50	10
6 to 700	63 to 99	Cc1cnc(C(=O)NC23CC4CC(CC(NC(=O)c5cccc(F)c5)(C4)C2)C3)cn1 [Example 94, 5-Methyl-pyrazine-2-carboxylic acid [3-(3-fluoro-benzoylamino)-adamantan-1-yl]-amide]	–	–	20	–
6 to 700	63 to 99	Cc1cncc(C(=O)NC23CC4CC(CC(NC(=O)c5ccccn5)(C4)C2)C3)n1 [Example 58, 6-Methyl-pyrazine-2-carboxylic acid {3-[(pyridine-2-carbonyl)-amino]-adamantan-1-yl}-amide]	10	–	–	10
